Laboratory results as given in patent US8076266B2, “Urea phosphite fungicide” (Lidochem, Inc., priority 2004, dated 2011).

Tests used:
[1] = tested on: Downey Mildew fungus on lettuce; conditions: in vivo
[2] = format: physicochemical
Excerpt: […]. 55 grams phosphorous acid crystals were blended with 42 grams urea pills and stirred in a covered container at room temperature. […].

Compound | Downey mildew rating, Mean of 4 Replications [1] | Ranking [1] | Stability of liquid on heating / cooling [2] | Pathological acerbation [1]
potassium phosphite [2 (potassium phosphite)] | 4.81 | 4 | – | –
urea phosphite [Example 2] | – | – | stable upon heating to 90 °C or cooling to 0 °C | –
Urea Phosphite [Example 4] | – | – | stable upon heating to 90 °C and crystals formed upon cooling | –
NC(N)=O.OP(O)O [Urea Phosphite] | 3.93 | 1 | – | no indication of pathological acerbation
potassium phosphite [1 (potassium phosphite)] | 4.62 | 3 | – | –
